Molecular target: T1, BRCA1-associated ATM activator 1 (BRAT1) (Homo sapiens, UniProt Q6PJG6)
T1 sequence (Q6PJG6 1-821): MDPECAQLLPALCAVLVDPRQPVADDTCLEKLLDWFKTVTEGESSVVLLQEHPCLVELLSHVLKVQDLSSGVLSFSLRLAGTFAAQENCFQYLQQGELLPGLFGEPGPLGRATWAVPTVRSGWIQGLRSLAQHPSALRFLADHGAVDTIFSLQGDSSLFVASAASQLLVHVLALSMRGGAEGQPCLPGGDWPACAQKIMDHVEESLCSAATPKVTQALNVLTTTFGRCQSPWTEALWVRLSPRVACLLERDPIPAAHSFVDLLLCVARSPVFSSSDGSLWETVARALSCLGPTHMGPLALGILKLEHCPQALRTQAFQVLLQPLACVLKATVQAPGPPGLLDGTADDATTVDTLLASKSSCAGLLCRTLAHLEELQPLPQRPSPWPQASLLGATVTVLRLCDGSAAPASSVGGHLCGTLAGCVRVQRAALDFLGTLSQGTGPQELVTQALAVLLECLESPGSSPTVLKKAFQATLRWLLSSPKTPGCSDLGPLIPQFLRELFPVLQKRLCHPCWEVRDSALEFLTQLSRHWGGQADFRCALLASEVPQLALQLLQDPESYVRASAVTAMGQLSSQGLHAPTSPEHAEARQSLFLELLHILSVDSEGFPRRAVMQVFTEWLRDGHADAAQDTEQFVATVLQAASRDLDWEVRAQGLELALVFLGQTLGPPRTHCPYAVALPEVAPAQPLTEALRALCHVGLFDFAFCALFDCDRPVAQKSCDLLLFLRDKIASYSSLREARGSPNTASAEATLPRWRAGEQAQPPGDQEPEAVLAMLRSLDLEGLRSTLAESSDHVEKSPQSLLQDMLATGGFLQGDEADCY
Assay type: cell-based

C=C(C)C1CCC(=C)C2C3=C(C[C@@](C)(O)C3=O)C(=O)C(C)=C[C@@H]12 (stereo partly shown) [1d, curcusone D]
EC50: 2.7 µM

From PMC8281983 (Journal of the American Chemical Society, 2021)
